{"source": "the OligoGym collection", "biological_target": "IRF5", "conditions": "ASO", "note": "Values joined by “and” are separate entries in the source; they are usually repeats but may differ in a detail not shown here. Equal values may be shown once. After the bases stand the sugars from the 5' end (letter, count) and the backbone: PS all phosphorothioate, else s phosphorothioate and o phosphodiester by linkage. Methylation of C is not given here. [mop] = methoxypropylphosphonate linkage; e = 2'-O-(2-methoxyethyl) (MOE); k = constrained ethyl (cEt); d = 2'-deoxy (DNA); m = 2'-O-methyl", "data": [{"sequence": "TCTGAUATGATACCTA (sugars k3 d2 m1 d7 k3, PS)", "values": [{"measurement": "target mRNA inhibition", "setting": "A-431, 0.00412 µM", "result": 0, "unit": "%"}, {"measurement": "target mRNA inhibition", "setting": "A-431, 0.01225 µM", "result": 12, "unit": "%"}, {"measurement": "target mRNA inhibition", "setting": "A-431, 0.03704 µM", "result": 35, "unit": "%"}, {"measurement": "target mRNA inhibition", "setting": "A-431, 0.11111 µM", "result": 58, "unit": "%"}, {"measurement": "target mRNA inhibition", "setting": "A-431, 0.33333 µM", "result": 79, "unit": "%"}, {"measurement": "target mRNA inhibition", "setting": "A-431, 1 µM", "result": 83, "unit": "%"}]}, {"sequence": "TCTTGACCTCCCGCTG (sugars kdddddddddkekeke, PS)", "values": [{"measurement": "target mRNA inhibition", "setting": "KARPAS-229, 4 µM", "result": 40, "unit": "%"}]}, {"sequence": "TGAGTCATGGGCTGAG (sugars k3 d9 k3 e1, PS)", "values": [{"measurement": "target mRNA inhibition", "setting": "KARPAS-229, 4 µM", "result": 11, "unit": "%"}]}, {"sequence": "TGAGTCATGGGCTGAG (sugars kkdddddddddkdkdk, PS)", "values": [{"measurement": "target mRNA inhibition", "setting": "KARPAS-229, 4 µM", "result": 12, "unit": "%"}]}, {"sequence": "TGAGTCATGGGCTGAG (sugars kkkddddddddkdkdk, PS)", "values": [{"measurement": "target mRNA inhibition", "setting": "KARPAS-229, 4 µM", "result": 3, "unit": "%"}]}, {"sequence": "TGAGTCTCAAACCAGG (sugars k2 d9 e3 k2, PS)", "values": [{"measurement": "target mRNA inhibition", "setting": "KARPAS-229, 4 µM", "result": 0, "unit": "%"}]}, {"sequence": "TGAGTCTCAAACCAGG (sugars kkddddddddddkeke, PS)", "values": [{"measurement": "target mRNA inhibition", "setting": "KARPAS-229, 4 µM", "result": 7, "unit": "%"}]}, {"sequence": "TGCACTGACACAGGCG (sugars k2 d9 e3 k2, PS)", "values": [{"measurement": "target mRNA inhibition", "setting": "KARPAS-229, 4 µM", "result": 18, "unit": "%"}]}, {"sequence": "TGCACTGACACAGGCG (sugars kkdddddddddkekek, PS)", "values": [{"measurement": "target mRNA inhibition", "setting": "KARPAS-229, 4 µM", "result": 0, "unit": "%"}]}, {"sequence": "TGCTCTAAACCATTCT (sugars k3 d10 k3, PS)", "values": [{"measurement": "target mRNA inhibition", "setting": "KARPAS-229, 4 µM", "result": 0, "unit": "%"}]}, {"sequence": "TGTCACATCTCCACAT (sugars kdddddddddkekeke, PS)", "values": [{"measurement": "target mRNA inhibition", "setting": "KARPAS-229, 4 µM", "result": 0, "unit": "%"}]}, {"sequence": "TGTCTAGTGTCATGGA (sugars k2 d9 e3 k2, linkages s3 [mop]1 s11)", "values": [{"measurement": "target mRNA inhibition", "setting": "A-431, 0.00412 µM", "result": 0, "unit": "%"}, {"measurement": "target mRNA inhibition", "setting": "A-431, 0.01225 µM", "result": 15, "unit": "%"}, {"measurement": "target mRNA inhibition", "setting": "A-431, 0.03704 µM", "result": 10, "unit": "%"}, {"measurement": "target mRNA inhibition", "setting": "A-431, 0.11111 µM", "result": 39, "unit": "%"}, {"measurement": "target mRNA inhibition", "setting": "A-431, 0.33333 µM", "result": 58, "unit": "%"}, {"measurement": "target mRNA inhibition", "setting": "A-431, 1 µM", "result": 75, "unit": "%"}]}, {"sequence": "TGTCTAGTGTCATGGA (sugars kkddddddddddkeke, PS)", "values": [{"measurement": "target mRNA inhibition", "setting": "KARPAS-229, 4 µM", "result": 44, "unit": "%"}]}, {"sequence": "TGTCTAGTGTCATGGA (sugars kkddddddddkekekk, PS)", "values": [{"measurement": "target mRNA inhibition", "setting": "KARPAS-229, 4 µM", "result": 10, "unit": "%"}]}, {"sequence": "TGTCTAGTGTCATGGA (sugars kkddkddddddeeekk, PS)", "values": [{"measurement": "target mRNA inhibition", "setting": "A-431, 0.00412 µM", "result": 0, "unit": "%"}, {"measurement": "target mRNA inhibition", "setting": "A-431, 0.01225 µM", "result": 0, "unit": "%"}, {"measurement": "target mRNA inhibition", "setting": "A-431, 0.03704 µM", "result": 9, "unit": "%"}, {"measurement": "target mRNA inhibition", "setting": "A-431, 0.11111 µM", "result": 17, "unit": "%"}, {"measurement": "target mRNA inhibition", "setting": "A-431, 0.33333 µM", "result": 13, "unit": "%"}, {"measurement": "target mRNA inhibition", "setting": "A-431, 1 µM", "result": 29, "unit": "%"}]}, {"sequence": "TGTCTAGTGTCATGGA (sugars kkdkdddddddeeekk, PS)", "values": [{"measurement": "target mRNA inhibition", "setting": "A-431, 0.00412 µM", "result": 0, "unit": "%"}, {"measurement": "target mRNA inhibition", "setting": "A-431, 0.01225 µM", "result": 5, "unit": "%"}, {"measurement": "target mRNA inhibition", "setting": "A-431, 0.03704 µM", "result": 6, "unit": "%"}, {"measurement": "target mRNA inhibition", "setting": "A-431, 0.11111 µM", "result": 24, "unit": "%"}, {"measurement": "target mRNA inhibition", "setting": "A-431, 0.33333 µM", "result": 23, "unit": "%"}, {"measurement": "target mRNA inhibition", "setting": "A-431, 1 µM", "result": 41, "unit": "%"}]}, {"sequence": "TGTCTAGTGTCATGGA (sugars kkkddddddddkekek, PS)", "values": [{"measurement": "target mRNA inhibition", "setting": "KARPAS-229, 4 µM", "result": 57, "unit": "%"}]}, {"sequence": "TGTGACTGTATTACCT (sugars k3 d10 k3, PS)", "values": [{"measurement": "target mRNA inhibition", "setting": "KARPAS-229, 0.44444 µM", "result": 38, "unit": "%"}, {"measurement": "target mRNA inhibition", "setting": "KARPAS-229, 1.33333 µM", "result": 44, "unit": "%"}, {"measurement": "target mRNA inhibition", "setting": "KARPAS-229, 4 µM", "result": "81% and 66%"}, {"measurement": "target mRNA inhibition", "setting": "KARPAS-229, 12 µM", "result": 78, "unit": "%"}]}, {"sequence": "TGTTGAATTTTGTGAC (sugars k3 d10 k3, PS)", "values": [{"measurement": "target mRNA inhibition", "setting": "KARPAS-229, 4 µM", "result": 26, "unit": "%"}]}, {"sequence": "TTATCTCCGTCCTGGC (sugars kkddddddddddkeke, PS)", "values": [{"measurement": "target mRNA inhibition", "setting": "KARPAS-229, 4 µM", "result": 0, "unit": "%"}]}, {"sequence": "TTATCTCCGTCCTGGC (sugars kkdddddddddkekek, PS)", "values": [{"measurement": "target mRNA inhibition", "setting": "KARPAS-229, 4 µM", "result": 0, "unit": "%"}]}, {"sequence": "TTATCTCCGTCCTGGC (sugars kkddddddddkekekk, PS)", "values": [{"measurement": "target mRNA inhibition", "setting": "KARPAS-229, 4 µM", "result": 0, "unit": "%"}]}, {"sequence": "TTATTTCTGCTCCAGG (sugars kkkdddddddddkeke, PS)", "values": [{"measurement": "target mRNA inhibition", "setting": "KARPAS-229, 4 µM", "result": 43, "unit": "%"}]}, {"sequence": "TTATTTCTGCTCCAGG (sugars kkkddddddddkdkdk, PS)", "values": [{"measurement": "target mRNA inhibition", "setting": "KARPAS-229, 0.44444 µM", "result": 42, "unit": "%"}, {"measurement": "target mRNA inhibition", "setting": "KARPAS-229, 1.33333 µM", "result": 62, "unit": "%"}, {"measurement": "target mRNA inhibition", "setting": "KARPAS-229, 4 µM", "result": "57% and 67%"}, {"measurement": "target mRNA inhibition", "setting": "KARPAS-229, 12 µM", "result": 79, "unit": "%"}]}, {"sequence": "TTCCAATTTTGCATTC (sugars k3 d10 k3, PS)", "values": [{"measurement": "target mRNA inhibition", "setting": "KARPAS-229, 4 µM", "result": 39, "unit": "%"}]}, {"sequence": "TTCTTGGACTCTCAAG (sugars kddddddddddkekek, PS)", "values": [{"measurement": "target mRNA inhibition", "setting": "KARPAS-229, 4 µM", "result": 0, "unit": "%"}]}, {"sequence": "TTCTTGGACTCTCAAG (sugars kdddddddddkekeke, PS)", "values": [{"measurement": "target mRNA inhibition", "setting": "KARPAS-229, 4 µM", "result": 0, "unit": "%"}]}, {"sequence": "TTGTCTAGTGTCATGG (sugars k3 d9 k3 e1, PS)", "values": [{"measurement": "target mRNA inhibition", "setting": "KARPAS-229, 4 µM", "result": 20, "unit": "%"}]}, {"sequence": "TTGTCTAGTGTCATGG (sugars kddddddddddkekek, PS)", "values": [{"measurement": "target mRNA inhibition", "setting": "KARPAS-229, 4 µM", "result": 44, "unit": "%"}]}, {"sequence": "TTTGTGACTGTATTAC (sugars k3 d10 k3, PS)", "values": [{"measurement": "target mRNA inhibition", "setting": "KARPAS-229, 4 µM", "result": 50, "unit": "%"}]}]}
